Data set [1] concerns variety of other tumours. The following applies: cited from earlier work.
Data set [2] has as its system mouse. The following applies: cited from earlier work.
The subject of data set [3] is human cells. The following applies: cited from earlier work.
The conditions of data set [4]: human clinical oncology studies; cited from earlier work.
The test system of data set [5] is rats. The experiment in a line: toxic effects in rats when administered via the oral route. The data set is classed as in vivo. An excerpt:
As mentioned above, rats are particularly troublesome vermin. […] For example, Tretazicar is particularly toxic towards rats compared to other rodents. […] This feature is believed to help prevent bait-shyness.

Data set [6] relates to rat. The following applies: administered intraperitoneally; cited from earlier work.
For data set [7] the following is noted: dogs, packed into a gelatin capsule; cited from earlier work.
The subject of data set [8] is Walker tumour. The following applies: specific rat tumour ('Walker tumour'); cited from earlier work.
Data set [9] relates to rats. To be noted: cited from earlier work.

As a reminder, the LD50 is the dose at which mortality reaches 50%. Regarding `NC(=O)c1cc(N2CC2)c([N+](=O)[O-])cc1[N+](=O)[O-]` [Tretazicar, 5-(aziridin-1-yl)-2,4-dinitrobenzarnide], in data set [1], the “effect on other tumours” value is listed as “little or no effect”. Besides, the figures for the LD50 in [2] and in [6] were 220 mg/kg and 28 mg/kg, respectively. Moreover, the “sensitivity of cells to the effects of the compound” value in data set [3] is “insensitive”. In addition, the therapeutic benefit entry in data set [4] is on record as “no therapeutic benefit”. The “onset of toxic effects” value in data set [5] is on record as “delayed”. Also, the oral bioavailability result in data set [7] is recorded as “about 40%”. The “effect on Walker tumour” value in data set [8] is “capable of eradicating”. Besides, the toxicity entry in data set [9] is “toxic to rats”.

These data come from patent US8785428B2, “Vermin poison” (priority 2006, dated 2014).
